Measured values: patent publication US9676732B2, “Ethynyl derivatives” (Hoffmann-La Roche Inc., priority 2013, dated 2017)

Target: human mGlu4 receptor (Homo sapiens (Human), UniProt Q14833)
Assay: Ca2+ mobilization in vitro assay on recombinant human mGlu4 expressed in HEK293 cells (mGlu4 PAM)
Format: cell-based
Details: for EC50: HEK293 cells stably expressing human mGlu4, L-AP4 added at EC20, read-out: EC50 (nM) mGlu4PAM; for Eff. (%): maximal response in % of the maximal stimulatory effect obtained with saturating concentrations of L-AP4
Protocol: Determination of EC50 Values Using a Ca2+ Mobilization In Vitro Assay on Recombinant Human mGlu4 Expressed in HEK293 Cells:
A monoclonal HEK-293 cell line stably transfected with a cDNA encoding for the human mGlu4 receptor was generated; for the work with mGlu4 Positive Allosteric Modulators (PAMs), a cell line with low receptor expression levels and low constitutive receptor activity was selected to allow the differentiation of agonistic versus PAM activity. Cells were cultured according to standard protocols (Freshney, 2000) in Dulbecco's Modified Eagle Medium with high glucose supplemented with 1 mM glutamine, 10% (vol/vol) heat-inactivated bovine calf serum, Penicillin/Streptomycin, 50 μg/ml hygromycin and 15 μg/ml blasticidin (all cell culture reagents and antibiotics from Invitrogen, Basel, Switzerland).
About 24 hrs before an experiment, 5×10^4 cells/well were seeded in poly-D-lysine coated, black/clear-bottomed 96-well plates. The cells were loaded with 2.5 μM Fluo-4AM in loading buffer (1×HBSS, 20 mM HEPES) for 1 hr at 37° C. and washed five times with loading buffer. The cells were transferred into a Functional Drug Screening System 7000 (Hamamatsu, Paris, France), and 11 half logarithmic serial dilutions of test compound at 37° C. were added and the cells were incubated for 10-30 min. with on-line recording of fluorescence. Following this pre-incubation step, the agonist (2S)-2-amino-4-phosphonobutanoic acid (L-AP4) was added to the cells at a concentration corresponding to EC20 with on-line recording of fluorescence; in order to account for day-to-day variations in the responsiveness of cells, the EC20 of L-AP4 was determined immediately ahead of each experiment by recording of a full dose-response curve of L-AP4.
Responses were measured as peak increase in fluorescence minus basal (i.e. fluorescence without addition of L-AP4), normalized to the maximal stimulatory effect obtained with saturating concentrations of L-AP4. Graphs were plotted with the % maximal stimulatory using XLfit, a curve fitting program that iteratively plots the data using Levenburg Marquardt algorithm. The single site competition analysis equation used was y=A+((B−A)/(1+((x/C)D))), where y is the % maximal stimulatory effect, A is the minimum y, B is the maximum y, C is the EC50, x is the log 10 of the concentration of the competing compound and D is the slope of the curve (the Hill Coefficient). From these curves the EC50 (drug concentration at which 50% of the maximal receptor activation was achieved), the Hill coefficient as well as the maximal response in % of the maximal stimulatory effect obtained with saturating concentrations of L-AP4 were calculated (see FIG. 1).
A depression of the signal observed after addition of the EC20 concentration of L-AP4 was indicative of an inhibitory activity of the test compound. • FIG. 1: Illustration of the experimental outline for mGlu4 PAM Ca2+ mobilization screening assay and the determination of EC50 and % Emax values.

Sequence of human mGlu4 receptor (Q14833 33-912): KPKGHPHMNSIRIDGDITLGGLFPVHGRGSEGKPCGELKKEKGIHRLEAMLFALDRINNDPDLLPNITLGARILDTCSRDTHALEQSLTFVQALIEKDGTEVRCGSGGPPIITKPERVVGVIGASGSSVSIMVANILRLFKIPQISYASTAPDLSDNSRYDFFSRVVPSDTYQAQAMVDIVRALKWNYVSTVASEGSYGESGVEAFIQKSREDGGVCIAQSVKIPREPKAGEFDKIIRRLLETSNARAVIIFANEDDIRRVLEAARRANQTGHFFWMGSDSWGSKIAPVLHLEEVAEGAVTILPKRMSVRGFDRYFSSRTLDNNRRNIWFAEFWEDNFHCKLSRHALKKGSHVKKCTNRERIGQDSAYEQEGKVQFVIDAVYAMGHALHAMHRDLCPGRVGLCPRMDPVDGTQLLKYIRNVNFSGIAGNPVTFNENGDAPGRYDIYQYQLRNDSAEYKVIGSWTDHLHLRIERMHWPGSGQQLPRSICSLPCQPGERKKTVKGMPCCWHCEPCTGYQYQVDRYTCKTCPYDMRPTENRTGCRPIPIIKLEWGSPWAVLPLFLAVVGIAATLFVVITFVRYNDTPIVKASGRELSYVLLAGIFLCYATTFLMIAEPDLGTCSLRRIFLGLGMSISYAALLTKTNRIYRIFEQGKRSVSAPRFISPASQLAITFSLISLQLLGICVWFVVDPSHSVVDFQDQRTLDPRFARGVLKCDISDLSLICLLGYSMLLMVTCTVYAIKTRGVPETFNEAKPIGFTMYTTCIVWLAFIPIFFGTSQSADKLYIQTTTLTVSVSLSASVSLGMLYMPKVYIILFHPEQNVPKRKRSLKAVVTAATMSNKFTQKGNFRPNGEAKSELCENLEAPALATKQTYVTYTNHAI

| Compound | EC50 [nM] | Eff. (%) |
| --- | --- | --- |
| Cc1cccc2c(=O)n(-c3ncc(C#Cc4ccccc4)cc3Cl)c(=O)n(C)c12 [Example 46, 3-[3-Chloro-5-(2-phenylethynyl)-2-pyridyl]-1,8-dimethyl-quinazoline-2,4-dione] | 141 | 113 |
| CC(C)n1c(=O)n(-c2c(F)cc(C#Cc3ccccc3)cc2F)c(=O)c2c1cnn2C [Example 36, 6-[2,6-Difluoro-4-(2-phenylethynyl)phenyl]-4-isopropyl-1-methyl-pyrazolo[4,3-d]pyrimidine-5,7-dione] | 155 | 89 |
| CC(C)n1c(=O)n(-c2c(F)cc(C#Cc3ccccc3)cc2F)c(=O)c2c[nH]nc21 [Example 64, 5-[2,6-Difluoro-4-(2-phenylethynyl)phenyl]-7-isopropyl-2H-pyrazolo[3,4-d]pyrimidine-4,6-dione] | 121 | 120 |
| Cc1ccc2c(=O)n(-c3c(F)cc(C#Cc4ccccc4)cc3F)c(=O)n(C)c2c1 [Example 26, 3-[2,6-Difluoro-4-(2-phenylethynyl)phenyl]-1,7-dimethyl-quinazoline-2,4-dione] | 115 | 108 |
| Cn1c(=O)n(-c2ccc(C#Cc3ccccc3)cc2Cl)c(=O)c2ccc(Cl)cc21 [Example 4, 7-Chloro-3-[2-chloro-4-(2-phenylethynyl)phenyl]-1-methyl-quinazoline-2,4-dione] | 220 | 120 |
| O=c1[nH]c2ncccc2c(=O)n1-c1ccc(C#Cc2ccccc2)cc1Cl [Example 6, 3-[2-Chloro-4-(2-phenylethynyl)phenyl]-1H-pyrido[2,3-d]pyrimidine-2,4-dione] | 179 | 104 |
| Cn1c(=O)n(-c2ccc(C#Cc3ccccc3)cc2Cl)c(=O)c2nccnc21 [Example 15, 3-[2-Chloro-4-(2-phenylethynyl)phenyl]-1-methyl-pteridine-2,4-dione] | 110 | 111 |
| Cn1c(=O)n(-c2ccc(C#Cc3ccccc3)cc2Cl)c(=O)c2ncccc21 [Example 9, 3-[2-Chloro-4-(2-phenylethynyl)phenyl]-1-methyl-pyrido[3,2-d]pyrimidine-2,4-dione] | 308 | 167 |
| Cn1c(=O)n(-c2ccc(C#Cc3ccccc3)cc2Cl)c(=O)c2ccc(F)c(F)c21 [Example 19, 3-[2-Chloro-4-(2-phenylethynyl)phenyl]-7,8-difluoro-1-methyl-quinazoline-2,4-dione] | 134 | 73 |
| CC(C)c1cccc2c(=O)n(-c3ccc(C#Cc4ccccc4)cc3Cl)c(=O)n(C)c12 [Example 54, 3-[2-Chloro-4-(2-phenylethynyl)phenyl]-8-isopropyl-1-methyl-quinazoline-2,4-dione] | 179 | 97 |
| CCn1c(=O)n(-c2ccc(C#Cc3ccccc3)cc2Cl)c(=O)c2ccccc21 [Example 14, 3-[2-Chloro-4-(2-phenylethynyl)phenyl]-1-ethyl-quinazoline-2,4-dione] | 172 | 97 |
| Cn1c(=O)n(-c2ccc(C#Cc3ccccc3)cc2Cl)c(=O)c2ccccc21 [Example 1, 3-[2-Chloro-4-(2-phenylethynyl)phenyl]-1-methyl-quinazoline-2,4-dione] | 150 | 102 |
| Cn1cc2c(=O)n(-c3c(F)cc(C#Cc4ccccc4)cc3F)c(=O)n(C)c2n1 [Example 62, 5-[2,6-Difluoro-4-(2-phenylethynyl)phenyl]-2,7-dimethyl-pyrazolo[3,4-d]pyrimidine-4,6-dione] | 137 | 145 |
| Cn1c(=O)n(-c2ncc(C#Cc3ccccc3)cc2C(F)(F)F)c(=O)c2ccccc21 [Example 48, 1-Methyl-3-[5-(2-phenylethynyl)-3-(trifluoromethyl)-2-pyridyl]quinazoline-2,4-dione] | 175 | 95 |
| Cn1c(=O)n(-c2ccc(C#Cc3ccccc3)cc2Cl)c(=O)c2sc(N3CCOCC3)nc21 [Example 51, 6-[2-Chloro-4-(2-phenylethynyl)phenyl]-4-methyl-2-morpholino-thiazolo[4,5-d]pyrimidine-5,7-dione] | 164 | 127 |

Now those with a lower EC50, led by results:

| EC50 [nM] | Eff. (%) | Compound |
| --- | --- | --- |
| 102 | 123 | O=c1c2ccccc2n(C2CCC2)c(=O)n1-c1ccc(C#Cc2ccccc2)cc1Cl [Example 53, 3-[2-Chloro-4-(2-phenylethynyl)phenyl]-1-cyclobutyl-quinazoline-2,4-dione] |
| 91 | 129 | Cn1c(=O)n(-c2c(F)cc(C#Cc3ccccc3)cc2F)c(=O)c2nccc(Cl)c21 [Example 61, 8-Chloro-3-[2,6-difluoro-4-(2-phenylethynyl)phenyl]-1-methyl-pyrido[3,2-d]pyrimidine-2,4-dione] |
| 86 | 103 | O=c1c2ccccc2n(C2COC2)c(=O)n1-c1c(F)cc(C#Cc2cccnc2)cc1Cl [Example 71, 3-[2-Chloro-6-fluoro-4-[2-(3-pyridyl)ethynyl]phenyl]-1-(oxetan-3-yl)quinazoline-2,4-dione] |
| 75 | 184 | O=c1c2ccccc2n(C2COC2)c(=O)n1-c1c(F)cc(C#Cc2ccccc2)cc1F [Example 66, 3-[2,6-Difluoro-4-(2-phenylethynyl)phenyl]-1-(oxetan-3-yl)quinazoline-2,4-dione] |
| 74 | 107 | Cc1cccc2c(=O)n(-c3c(F)cc(C#Cc4cccnc4)cc3Cl)c(=O)n(C)c12 [Example 43, 3-[2-Chloro-6-fluoro-4-[2-(3-pyridyl)ethynyl]phenyl]-1,8-dimethyl-quinazoline-2,4-dione] |
| 57 | 115 | CC(C)n1c(=O)n(-c2ccc(C#Cc3ccccc3)cc2Cl)c(=O)c2ccccc21 [Example 13, 3-[2-Chloro-4-(2-phenylethynyl)phenyl]-1-isopropyl-quinazoline-2,4-dione] |
| 52 | 89 | CC(C)n1c(=O)n(-c2ccc(C#Cc3ccccc3)cc2Cl)c(=O)c2nccnc21 [Example 21, 3-[2-Chloro-4-(2-phenylethynyl)phenyl]-1-isopropyl-pteridine-2,4-dione] |
| 52 | 78 | O=c1c2cccc3c2n(c(=O)n1-c1c(F)cc(C#Cc2ccccc2)cc1F)CC3 [Example 29, 2-(2,6-Difluoro-4-(phenylethynyl)phenyl)-5,6-dihydro-1H-pyrrolo[3,2,1-ij]quinazoline-1,3(2H)-dione] |
| 50 | 113 | Cn1cnc2c1c(=O)n(-c1c(F)cc(C#Cc3ccccc3)cc1F)c(=O)n2C [Example 69, 1-[2,6-Difluoro-4-(2-phenylethynyl)phenyl]-3,7-dimethyl-purine-2,6-dione] |
| 38 | 152 | COc1cccc2c(=O)n(-c3c(F)cc(C#Cc4ccccc4)cc3F)c(=O)n(C)c12 [Example 70, 3-[2,6-Difluoro-4-(2-phenylethynyl)phenyl]-8-methoxy-1-methyl-quinazoline-2,4-dione] |
| 32 | 97 | COc1cccc2c(=O)n(-c3ccc(C#Cc4ccccc4)cc3Cl)c(=O)n(C)c12 [Example 65, 3-[2-Chloro-4-(2-phenylethynyl)phenyl]-8-methoxy-1-methyl-quinazoline-2,4-dione] |
| 29 | 86 | Cc1csc2c(=O)n(-c3c(F)cc(C#Cc4cccnc4)cc3F)c(=O)n(C)c12 [Example 28, 3-[2,6-Difluoro-4-[2-(3-pyridyl)ethynyl]phenyl]-1,7-dimethyl-thieno[3,2-d]pyrimidine-2,4-dione] |
| 23 | 104 | CC(C)n1c(=O)n(-c2c(F)cc(C#Cc3ccccc3)cc2F)c(=O)c2nsnc21 [Example 40, 6-[2,6-Difluoro-4-(2-phenylethynyl)phenyl]-4-isopropyl-[1,2,5]thiadiazolo[3,4-d]pyrimidine-5,7-dione] |
| 17 | 107 | Cn1c(=O)n(-c2c(F)cc(C#Cc3ccccc3)cc2F)c(=O)c2nsnc21 [Example 39, 6-[2,6-Difluoro-4-(2-phenylethynyl)phenyl]-4-methyl-[1,2,5]thiadiazolo[3,4-d]pyrimidine-5,7-dione] |
